Consider 29 compounds from patent US8877707B2, “Inhibitors of HCV NS5A” (Presidio Pharmaceuticals, Inc., priority 2010, dated 2014).

Read-outs that look alike come from different tables or passages of the source. Some results are limits rather than exact numbers.

This test has as its system HCV genotype 1b replicon in Huh 7 cells. In words: HCV replicon assay (1b_Huh-Luc/Neo-ET cell line, luciferase readout). The test is classed as cell-based. The following applies: Hepatitis C virus, read-out: Inhibition of HCV genotype 1b. In short, it runs like this: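 Huh 7 cells carrying a bicistronic genotype 1b luciferase replicon were treated with compound in triplicate the day after plating and incubated 72 h. Luciferase activity expressed as % of untreated control; EC50 from a four-parameter logistic fit, repeated several times.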
On the technique in general: In antiviral work, replicon cells carry a viral genome segment that copies itself.

[1] abbreviates: Table 2, genotype 1b replicon, Huh 7 cells, 72 h, luciferase.

For `COC(=O)N[C@H](C(=O)N1CCC[C@H]1c1ncc(-c2ccc3cc(-c4ccc5nc([C@@H]6CCCN6C(=O)[C@@H](NC(=O)OC)C6CC6)[nH]c5c4)ncc3c2)[nH]1)C1CC1` [compound 376], the EC50 under setting [1] is less than 1 nM. In the case of `COC(=O)N[C@H](C(=O)N1CCC[C@H]1c1ncc(-c2ccc3cc(-c4ccc5nc([C@@H]6CCCN6C(=O)[C@@H](NC(=O)OC)[C@@H](C)OC)[nH]c5c4)ncc3c2)[nH]1)[C@@H](C)OC` [compound 377], the EC50 under setting [1] is less than 1 nM. On the same count and under the same terms, in the case of `COC(=O)N[C@H](C(=O)N1CCC[C@H]1c1ncc(-c2ccc3cc(-c4ccc5nc([C@@H]6CCCN6C(=O)[C@@H](NC(=O)OC)C6CCCCC6)[nH]c5c4)ncc3c2)[nH]1)C1CCCCC1` [compound 379] it was less than 1 nM. Consider `COC(=O)N[C@H](C(=O)N1CCC[C@H]1c1ncc(-c2ccc3nc(-c4ccc5nc([C@@H]6CCCN6C(=O)[C@@H](NC(=O)OC)C6CCCC6)[nH]c5c4)ccc3c2)[nH]1)C1CCCC1` [compound 381], for which the EC50 under setting [1] was less than 1 nM. Same read-out and setting: to `CCC(CC)[C@H](NC(=O)OC)C(=O)N1CCC[C@H]1c1ncc(-c2ccc3nc(-c4ccc5nc([C@@H]6CCCN6C(=O)[C@@H](NC(=O)OC)C(CC)CC)[nH]c5c4)ccc3c2)[nH]1` [compound 382] belongs less than 1 nM; to `CC[C@H](C)[C@H](NC(=O)OC)C(=O)N1CCC[C@H]1c1ncc(-c2ccc3nc(-c4ccc5nc([C@@H]6CCCN6C(=O)[C@@H](NC(=O)OC)[C@@H](C)CC)[nH]c5c4)ccc3c2)[nH]1` [compound 383], less than 1 nM; to `CC[C@@H](C)[C@H](NC(=O)OC)C(=O)N1CCC[C@H]1c1ncc(-c2ccc3nc(-c4ccc5nc([C@@H]6CCCN6C(=O)[C@@H](NC(=O)OC)[C@H](C)CC)[nH]c5c4)ccc3c2)[nH]1` [compound 384], less than 1 nM. Take `COC(=O)N[C@H](C(=O)N1CCC[C@H]1c1ncc(-c2ccc3nc(-c4ccc5nc([C@@H]6CCCN6C(=O)[C@@H](NC(=O)OC)C6CC6)[nH]c5c4)ccc3c2)[nH]1)C1CC1` [compound 385]: under setting [1], the EC50 is less than 1 nM.

As for `COC(=O)N[C@H](C(=O)N1CCC[C@H]1c1ncc(-c2ccc3nc(-c4ccc5nc([C@@H]6CCCN6C(=O)[C@@H](NC(=O)OC)[C@@H](C)OC)[nH]c5c4)ccc3c2)[nH]1)[C@@H](C)OC` [compound 386], under setting [1], the EC50 is less than 1 nM. `COC(=O)N[C@H](C(=O)N1CCC[C@H]1c1ncc(-c2ccc3nc(-c4ccc5nc([C@@H]6CCCN6C(=O)[C@@H](NC(=O)OC)C6CCCCC6)[nH]c5c4)ccc3c2)[nH]1)C1CCCCC1` [compound 388]: under setting [1], the EC50 is less than 1 nM. With `COC(=O)N[C@H](C(=O)N1CCC[C@H]1c1ncc(-c2ccc3cc(-c4ccc5nc([C@@H]6CCCN6C(=O)[C@@H](NC(=O)OC)C(C)C)[nH]c5c4)nnc3c2)[nH]1)C(C)C` [compound 390], under setting [1], the EC50 was less than 1 nM. As for `COC(=O)N[C@H](C(=O)N1CCC[C@H]1c1ncc(-c2ccc3cc(-c4ccc5nc([C@@H]6CCCN6C(=O)[C@@H](NC(=O)OC)C6CCCC6)[nH]c5c4)nnc3c2)[nH]1)C1CCCC1` [compound 393], under setting [1], the EC50 was less than 1 nM. As for `CC[C@@H](C)[C@H](NC(=O)OC)C(=O)N1CCC[C@H]1c1ncc(-c2ccc3cc(-c4ccc5nc([C@@H]6CCCN6C(=O)[C@@H](NC(=O)OC)[C@H](C)CC)[nH]c5c4)nnc3c2)[nH]1` [compound 396], the EC50 under setting [1] was less than 1 nM. As for `COC(=O)N[C@H](C(=O)N1CCC[C@H]1c1ncc(-c2ccc3cc(-c4ccc5nc([C@@H]6CCCN6C(=O)[C@@H](NC(=O)OC)C6CCCCC6)[nH]c5c4)nnc3c2)[nH]1)C1CCCCC1` [compound 400], the EC50 under setting [1] was less than 1 nM. As to `COC(=O)N[C@H](C(=O)N1CCC[C@H]1c1ncc(-c2ccc3cc(-c4cnc5nc([C@@H]6CCCN6C(=O)[C@@H](NC(=O)OC)C(C)C)[nH]c5c4)ccc3c2)[nH]1)C(C)C` [compound 402], the EC50 under setting [1] lay within 1 to 9.9 nM. Turning to `COC(=O)N[C@H](C(=O)N1CCC[C@H]1c1ncc(-c2ccc3cc(-c4cnc5nc([C@@H]6CCCN6C(=O)[C@@H](NC(=O)OC)C6CCCC6)[nH]c5c4)ccc3c2)[nH]1)C1CCCC1` [compound 403], the EC50 under setting [1] was less than 1 nM.

For the compound `CC[C@H](C)[C@H](NC(=O)OC)C(=O)N1CCC[C@H]1c1ncc(-c2ccc3cc(-c4cnc5nc([C@@H]6CCCN6C(=O)[C@@H](NC(=O)OC)[C@@H](C)CC)[nH]c5c4)ccc3c2)[nH]1` [compound 404], the EC50 under setting [1] is less than 1 nM. `CC[C@@H](C)[C@H](NC(=O)OC)C(=O)N1CCC[C@H]1c1ncc(-c2ccc3cc(-c4cnc5nc([C@@H]6CCCN6C(=O)[C@@H](NC(=O)OC)[C@H](C)CC)[nH]c5c4)ccc3c2)[nH]1` [compound 405]: the EC50 under setting [1] was less than 1 nM. Turning to `COC(=O)N[C@H](C(=O)N1CCC[C@H]1c1ncc(-c2ccc3cc(-c4cnc5nc([C@@H]6CCCN6C(=O)[C@@H](NC(=O)OC)C6CC6)[nH]c5c4)ccc3c2)[nH]1)C1CC1` [compound 406], under setting [1], the EC50 is less than 1 nM. In the case of `COC(=O)N[C@H](C(=O)N1CCC[C@H]1c1ncc(-c2ccc3cc(-c4cnc5nc([C@@H]6CCCN6C(=O)[C@@H](NC(=O)OC)C6CCCCC6)[nH]c5c4)ccc3c2)[nH]1)C1CCCCC1` [compound 409], the EC50 under setting [1] is less than 1 nM. Same read-out and setting: to `COC(=O)N[C@H](C(=O)N1CCC[C@H]1c1ncc(-c2ccc3cc(-c4cc5[nH]c([C@@H]6CCCN6C(=O)[C@@H](NC(=O)OC)C6CCCC6)nc5cn4)ccc3c2)[nH]1)C1CCCC1` [compound 411] belongs less than 1 nM.

`CC[C@H](C)[C@H](NC(=O)OC)C(=O)N1CCC[C@H]1c1ncc(-c2ccc3cc(-c4cc5[nH]c([C@@H]6CCCN6C(=O)[C@@H](NC(=O)OC)[C@@H](C)CC)nc5cn4)ccc3c2)[nH]1` [compound 412]: the EC50 under setting [1] was less than 1 nM. On the same count and under the same terms, to `CC[C@@H](C)[C@H](NC(=O)OC)C(=O)N1CCC[C@H]1c1ncc(-c2ccc3cc(-c4cc5[nH]c([C@@H]6CCCN6C(=O)[C@@H](NC(=O)OC)[C@H](C)CC)nc5cn4)ccc3c2)[nH]1` [compound 413] belongs less than 1 nM; to `COC(=O)N[C@H](C(=O)N1CCC[C@H]1c1ncc(-c2ccc3cc(-c4cc5[nH]c([C@@H]6CCCN6C(=O)[C@@H](NC(=O)OC)C6CC6)nc5cn4)ccc3c2)[nH]1)C1CC1` [compound 414], less than 1 nM.

`COC(=O)N[C@H](C(=O)N1CCC[C@H]1c1ncc(-c2ccc3cc(-c4cc5[nH]c([C@@H]6CCCN6C(=O)[C@@H](NC(=O)OC)[C@@H](C)OC)nc5cn4)ccc3c2)[nH]1)[C@@H](C)OC` [compound 415]: the EC50 under setting [1] was less than 1 nM. As to `COC(=O)N[C@H](C(=O)N1CCC[C@H]1c1ncc(-c2ccc3cc(-c4cc5[nH]c([C@@H]6CCCN6C(=O)[C@@H](NC(=O)OC)C6CCCCC6)nc5cn4)ccc3c2)[nH]1)C1CCCCC1` [compound 417], the EC50 under setting [1] is less than 1 nM.

In the case of `COC(=O)N[C@H](C(=O)N1CCC[C@H]1c1ncc(-c2ccc(-c3ccc4cc(-c5cnc([C@@H]6CSCN6C(=O)[C@@H](NC(=O)OC)C(C)C)[nH]5)ccc4c3)cc2)[nH]1)C(C)C` [compound 451], the EC50 (Huh-7, HCV 1b replicon) was less than 1 nM. As for `COC(=O)N[C@H](C(=O)N1CCC[C@H]1c1ncc(-c2ccc3nc(-c4ccc(-c5cnc([C@@H]6CCCN6C(=O)[C@H](NC(=O)OC6CCOCC6)c6ccccc6)[nH]5)c(F)c4)ccc3c2)[nH]1)C(C)C` [compound 452], the EC50 (Huh-7, HCV 1b replicon) is less than 1 nM.

Regarding `COC(=O)N[C@H](C(=O)N1CCC[C@H]1c1ncc(-c2ccc3nc(-c4ccc(-c5cnc([C@@H]6CCCN6C(=O)[C@H](NC(=O)OC)c6ccccc6)[nH]5)c(F)c4)ccc3c2)[nH]1)C(C)C` [compound 453], under “Huh-7, HCV 1b replicon”, the EC50 is less than 1 nM.
